# Like-named read-outs stand apart in the source and are kept apart here.
# Tests used:
# [1] = Berzosertib plasma and urine pharmacokinetics (LC-MS/MS, non-compartmental analysis); format: in vivo, human; details: for AUC(0-inf) / Cmax / clearance / Vd / half-life: iv, plasma; for Vd: read-out: Vss
# Description: PK assessments for berzosertib were conducted during the monotherapy lead-in and during cycles 1 and 2. Blood samples for berzosertib plasma PK assessments were collected following the single-agent dose, from day 1 of combination dosing (pre-dose, 0.5 h before the end of infusion, at end of infusion and 0.5, 1, 2, 3, 7, 23, 47 and 71 h after the end of infusion), on day 9 (pre-dose) and cycle 2 day 2 (pre-dose and 2 h after the end of infusion). Cumulative urine samples were collected for PK assessments on days 2 and 3 of cycle 1 (pre-dose—3, 3–7, 7–11 and 11–23 h). Berzosertib concentrations were quantified using a validated liquid chromatography tandem-mass spectrometry method and plasma PK was characterised by non-compartmental analyses using Phoenix WinNonlin 6.4 (Certara USA Inc, Princeton, NJ, USA).
# Safety data, baseline patient demographics and disease characteristics were summarised descriptively for the combination safety set—which included all enrolled patients who received at least one dose of study drug. PK data were collected in the PK analysis set, defined as all enrolled patients who received at least one dose of berzosertib and provided at least one measurable post-dose sample. […] Standard non-compartmental methods were used to determine PK parameters.
# [2] = test system: patients with advanced solid tumours
# Description: Part A was a 3 + 3 dose-escalation Phase 1 study evaluating the safety, tolerability, pharmacokinetics (PK) and preliminary efficacy of berzosertib in combination with gemcitabine with or without cisplatin (NCT02157792) (Fig. 1). Patients were enrolled in cohorts of three, with subsequent cohort expansion and dose-escalation decisions based on safety review, available PK data and observations of dose-limiting toxicities (DLTs) until the end of treatment cycle 1.
# A 7–14-day lead-in period with single ascending doses of intravenous (i.v.) berzosertib was planned to assess the safety of berzosertib monotherapy; the requirement for the lead-in period was removed after review of safety data both during the study and from a concurrent study of berzosertib monotherapy.[17] […] Based on preclinical studies, a starting dose of 18 mg/m^2 and a dosing regimen of i.v. berzosertib on days 2 and 9, ~24 ± 4 h after dosing with gemcitabine ± cisplatin, was selected.[17] […] Patients received i.v. gemcitabine on days 1 and 8, with or without i.v. cisplatin on day 1. […]
# Treatment-emergent adverse events (TEAEs) and DLTs were reported using National Cancer Institute (NCI) Common Terminology Criteria for Adverse Events (CTCAE) version 4.0. […] All AEs of any grade were recorded and followed up until resolution. Safety was evaluated throughout treatment and was used to inform dose-escalation decisions. […]
# ATR = test system: ATR; parameters: method as in PMID 23222511, PMID 25010037; details: inhibitor of ATR; cited from earlier work
# [3] = human, 18 mg/m2, berzosertib 18 mg/m^2 i.v., lead-in period, berzosertib alone, mean (% CV), n = 3
# [4] = human, 36 mg/m2, berzosertib 36 mg/m^2 i.v., lead-in period, berzosertib alone, mean (% CV), n = 3
# [5] = human, 60 mg/m2, berzosertib 60 mg/m^2 i.v., lead-in period, berzosertib alone, mean (% CV), n = 4
# [6] = human, 72 mg/m2, berzosertib 72 mg/m^2 i.v., lead-in period, berzosertib alone, mean (% CV), n = 7
# [7] = human, 90 mg/m2, berzosertib 90 mg/m^2 i.v., lead-in period, berzosertib alone, mean (% CV), n = 6
# [8] = human, 140 mg/m2, berzosertib 140 mg/m^2 i.v., lead-in period, berzosertib alone, mean (% CV), n = 5
# [9] = human, 210 mg/m2, berzosertib 210 mg/m^2 i.v., lead-in period, berzosertib alone, mean (% CV), n = 2
smiles,measurement,setting,value
CNCc1ccc(-c2cc(-c3nc(-c4ccc(S(=O)(=O)C(C)C)cc4)cnc3N)on2)cc1 [Berzosertib],Dose proportionality of exposure,[1]; from 18 to 210 mg/m^2,approximately dose-proportional
same,CL renal,"[1]; human, intravenous, part A, urine, read-out: Mean renal clearance (converted)",60 mL/min
same,AUC(0-inf),[1]; [3],351 ng·h/mL
same,Cmax,[1]; [3],72 ng/mL
same,clearance,[1]; [3],1640 mL/min
same,Vd,[1]; [3],1600 L
same,half-life,"[1]; human, 18 mg/m2, berzosertib 18 mg/m^2 i.v., lead-in period, berzosertib alone, mean (% CV), n = 3, read-out: t½ (converted)",840 min
same,AUC(0-inf),[1]; [4],913 ng·h/mL
same,Cmax,[1]; [4],176 ng/mL
same,clearance,[1]; [4],1500 mL/min
same,Vd,[1]; [4],1280 L
same,half-life,"[1]; human, 36 mg/m2, berzosertib 36 mg/m^2 i.v., lead-in period, berzosertib alone, mean (% CV), n = 3, read-out: t½ (converted)",852 min
same,AUC(0-inf),[1]; [5],1700 ng·h/mL
same,Cmax,[1]; [5],345 ng/mL
same,clearance,[1]; [5],1300 mL/min
same,Vd,[1]; [5],1280 L
same,half-life,"[1]; human, 60 mg/m2, berzosertib 60 mg/m^2 i.v., lead-in period, berzosertib alone, mean (% CV), n = 4, read-out: t½ (converted)",900 min
same,AUC(0-inf),[1]; [6],2280 ng·h/mL
same,Cmax,[1]; [6],536 ng/mL
same,clearance,[1]; [6],1040 mL/min
same,Vd,[1]; [6],1040 L
same,half-life,"[1]; human, 72 mg/m2, berzosertib 72 mg/m^2 i.v., lead-in period, berzosertib alone, mean (% CV), n = 7, read-out: t½ (converted)",912 min
same,AUC(0-inf),[1]; [7],2370 ng·h/mL
same,Cmax,[1]; [7],451 ng/mL
same,clearance,[1]; [7],1240 mL/min
same,Vd,[1]; [7],1320 L
same,half-life,"[1]; human, 90 mg/m2, berzosertib 90 mg/m^2 i.v., lead-in period, berzosertib alone, mean (% CV), n = 6, read-out: t½ (converted)",1030 min
same,AUC(0-inf),[1]; [8],4550 ng·h/mL
same,Cmax,[1]; [8],817 ng/mL
same,clearance,[1]; [8],1010 mL/min
same,Vd,[1]; [8],1150 L
same,half-life,"[1]; human, 140 mg/m2, berzosertib 140 mg/m^2 i.v., lead-in period, berzosertib alone, mean (% CV), n = 5, read-out: t½ (converted)",1020 min
same,AUC(0-inf),[1]; [9],6130 ng·h/mL
same,Cmax,[1]; [9],808 ng/mL
same,clearance,[1]; [9],1270 mL/min
same,Vd,[1]; [9],1550 L
same,half-life,"[1]; human, 210 mg/m2, berzosertib 210 mg/m^2 i.v., lead-in period, berzosertib alone, mean (% CV), n = 2, read-out: t½ (converted)",1010 min
same,half-life,"[1]; human, i.v., 18–210 mg/m^2, read-out: Apparent terminal half-life (converted)",~1020 min
same,"PK when administered ~24 h after gemcitabine, with or without cisplatin, versus berzosertib alone",[1]; in vivo,not significantly different
same,Mean percentage excreted in the urine,[1]; part A,5%
same,Accumulation,[1]; weekly administration,not observed
same,"Trends in laboratory results (serum chemistry, haematology, urinalysis), vital signs or ECG parameters attributable to treatment",[2]; in vivo,no clinically meaningful trends
same,Patients with acute hypersensitivity,"[2]; on second infusion of berzosertib, no clear relationship to dose",< 5%
same,IC50,ATR,19 nM
